Entries after “also recorded” stand apart in the source; their conditions may differ.
Experiments:
[1] = molecular target: T1, MR from rat kidney (kidney cytosol) (Rattus norvegicus, UniProt P22199); experiment: competition with (^3 H)-ALDO for MR, rat kidney cytosol; assay type: binding
T1 sequence (P22199 1-981): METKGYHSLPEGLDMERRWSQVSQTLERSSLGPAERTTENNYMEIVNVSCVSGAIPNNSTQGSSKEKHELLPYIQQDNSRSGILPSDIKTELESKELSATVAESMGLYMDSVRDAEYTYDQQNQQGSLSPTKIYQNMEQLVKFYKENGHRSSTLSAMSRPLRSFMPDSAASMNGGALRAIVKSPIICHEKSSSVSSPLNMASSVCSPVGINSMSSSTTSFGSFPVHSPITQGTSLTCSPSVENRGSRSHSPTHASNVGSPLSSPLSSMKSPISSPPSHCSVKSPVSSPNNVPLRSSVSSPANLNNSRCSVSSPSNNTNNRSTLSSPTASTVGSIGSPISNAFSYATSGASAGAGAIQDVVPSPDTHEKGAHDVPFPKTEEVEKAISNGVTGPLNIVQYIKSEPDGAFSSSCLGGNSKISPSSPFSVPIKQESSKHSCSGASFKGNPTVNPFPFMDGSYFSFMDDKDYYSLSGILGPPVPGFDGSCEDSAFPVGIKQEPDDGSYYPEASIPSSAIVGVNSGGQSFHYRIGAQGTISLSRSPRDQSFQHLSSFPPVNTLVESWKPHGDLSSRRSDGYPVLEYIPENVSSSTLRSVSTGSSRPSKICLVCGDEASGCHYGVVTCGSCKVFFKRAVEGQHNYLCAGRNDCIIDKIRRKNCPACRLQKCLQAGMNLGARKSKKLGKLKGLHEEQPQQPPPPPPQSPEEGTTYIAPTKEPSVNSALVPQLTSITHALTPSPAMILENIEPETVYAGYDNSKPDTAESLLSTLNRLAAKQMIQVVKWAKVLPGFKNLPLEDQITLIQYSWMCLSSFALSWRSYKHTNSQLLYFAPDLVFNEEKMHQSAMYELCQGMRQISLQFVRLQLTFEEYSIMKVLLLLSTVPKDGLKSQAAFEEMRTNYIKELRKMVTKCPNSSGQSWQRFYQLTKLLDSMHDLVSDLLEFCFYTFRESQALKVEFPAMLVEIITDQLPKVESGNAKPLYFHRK
Protocol: Binding Assay: Adrenalectomized male Sprague-Dawley rats were bled to death by heart puncture. Cold 0.9% NaCI was injected profusely through the aorta until organs were completely blanched. Thymuses were used as a source of GR and kidneys as a source of MR. Homogenization and incubation conditions were performed as previously described, (14) and (15), respectively. Briefly, homogenates performed in cold TEGM buffer at pH 7.4 (0.1 M Tris-HCl, 10 mM EDTA, 10 mM α-mercaptoethanol, 20 mM Na2 MoO4, 25% glycerol, 0.1 mM PMSF, 2.0 TIU/ml aprotinin and 1 mg% Leupeptin) were centrifuged at 37,000 rev. for 30 min at 0° C. Supernatants from this centrifugation are referred to as "cytosol". […] (^3 H)-P4 binding to uterus PR was assayed on immature female rats according to Jordan et al (16).
Relative binding affinity (RBA) for partially purified CBG was determined by steroid competition for (^3 H)-B binding as described previously (14).
The displacement curve of 6,19-oxidoprogesterone is included for comparative purposes.

[2] = tested on: tyrosine aminotransferase (TAT) induction in rat hepatocytes; experiment: TAT induction in rat hepatocytes (agonism); assay type: cell-based; conditions: FIGS. 3-B and 4 (hatched bars), no agonist added
Protocol: (§1) FIG. 3: Biological Properties of 21OH-6OP: A) Glycogen storage in vivo: 100 μg steroid/100 g body weight of male rats were injected as indicated in Example 1. Liver glycogen was purified and quantified with Krisman's reagent (17). Controls were injected with vehicle. Results are expressed as means±SEM (n=6). (*): different from controls P<0.02. B) TAT induction in vitro: rat hepatocytes were incubated for 5 h in HAM-F12 medium in the presence of 100 nM steroid and TAT activity was measured. Results are expressed as percentage of enzyme activity (means±SEM, n=4) over controls incubated in the presence of vehicle. (*) different from controls P<0.01. C) Sodium-retaining activity: adrenalectomized rats were treated with the indicated dose of steroids. Results are expressed as the ratio of sodium-excretion rates of steroid-injected animals to the excretion rates of rats injected with vehicle.
Hatched bars represent incubations performed in the presence of vehicle instead of agonist.
(§2) Bioassay : Liver glycogen deposition was measured on adrenalectoniized male Sprague-Dawley rats (180-220 g) as follows: steroids were dissolved in ethanol/propylene glycol/0.9% NaCl solution (3:3:34) and 100 μg steroid/l00 g body weight were injected i.m. the previous night. On the morning of the experiment this dose was reinjected intraperitoneally. Three hours later the rats were killed by cervical dislocation and livers were immediately removed. Glycogen purification and quantification were carried out according to Krisman's method (17). Na^+ -retaining properties were measured as described (5). Tyrosine aminotransferase (TAT) was induced in rat hepatocytes isolated by the procedure of Fry et al (18). TAT activity was determined according to Granner and Tomkins (19).
The basal TAT activity in hepatocytes, denominated control in the figure, was measured by adding vehicle (final concentration: 0.2% ethanol) to the culture. […] 2.5 μM 21OH-6OP inhibits 80% of TAT induction when concubated with B or DXM.

[3] = tested on: Na^+ retention (sodium-excretion rate); experiment: Na^+ -retaining activity, adrenalectomized rats; assay type: in vivo, rat
Protocol: as §1, §2

C[C@]12CC[C@H]3[C@@H](C[C@H]4OC[C@@]35CCC(=O)C=C45)[C@@H]1CC[C@@H]2C(=O)CO [21OH-6OP, 21-hydroxy-6,19-oxidoprogesterone]
competition with (^3 H)-ALDO for MR / interaction with MR ([1]; kidney cytosol, 5 nM (^3 H)-ALDO, 1.0 μM RU28362): unable to cross-react with uterus-PR or kidney-MR; also recorded: does not compete efficiently with (^3 H)-ALDO for MR, even when a thousand fold excess was added; also recorded: no ability to interact with MR nor PR | change of binding to MR by 21-hydroxyl introduction ([1]; vs 6,19-oxidopregnane skeleton, panel 2-C): does not improve the binding of the 6,19-oxidopregnane skeleton to MR | TAT induction (in words) [2]: neither 6OP nor 21OH-6OP evoke these responses; also recorded: Neither 6OP nor 21OH-6OP facilitate TAT induction | Na^+ -retaining (MC) properties (in words) ([3]; FIG. 3-C): almost devoid of MC properties; also recorded: then loosing activity at still higher doses | maximum Na^+ retention ([3]; maximum of parabolic dose-response, at high doses): 40%

— US6303591A, “21-hydroxy-6,19-oxidoprogesterone (21OH-6OP) and its use as medicament for treating excess of glucocorticoids” (Applied Research Systems ARS Holding NV, priority 1997, dated 2001)
